The text below walks through data of patent US11033559B2, “Leukocyte infiltration promoting agent and antitumor immunostimulatory agent” (OSAKA UNIVERSITY, priority 2015, dated 2021).

What all share (format): in vivo
The test system of assay [1] is tumor blood vessels in Lewis lung cancer (LLC) tumor-bearing mice. Briefly: Structural changes in tumor blood vessels (anti-CD31 immunostaining) after administration of LPA or LPA derivative. To be noted: 3 mg/kg intraperitoneally once daily for five days, tumors harvested at 6 days, anti-CD31 staining. The method, then: LPA or an LPA derivative was administered to tumor-bearing mice generated by subcutaneous inoculation of a mouse cancer cell line, and post-administration structural changes in tumor blood vessels were examined.
Lewis lung cancer cells (hereinafter called LLC cells) were used as the mouse cancer cell line. LLC cells (1×10^6 cells in 100 μL PBS per animal) were subcutaneously injected into C57BL/6 NCrSlc mice aged 8 weeks (females, SLC, Inc.).
The LPA used was 18:1 LPA (Avanti Polar Lipids, Inc.). The LPA derivative used was VPC31144S (N-{(1S)-2-hydroxy-1-[(phosphonooxy)methyl]ethyl} (9Z) octade c-9-enamide). A 10 mM LPA stock solution and a 10 mM VPC31144S stock solution were separately prepared using 50% ethanol and stored at −30° C. Before use, each of the frozen stock solutions was thawed and homogenized with an ultrasonic cleaner (SND Co., Ltd.) for 1 minute. The solution was diluted in PBS to an appropriate concentration for administration at a dose of 3 mg/kg in 100 μL PBS.
On day 9 post-inoculation, LLC-bearing mice that had developed a tumor with a volume of 60 to 80 mm^3 (volume=length×width×height×0.5) were selected and subjected to the experiment. The mice were assigned to three groups: a control group, an LPA group and a VPC31144S group. Each group consisted of three mice. […]

In assay [2] the test system is tumor blood vessels in LLC tumor-bearing mice. Briefly: Structural changes in tumor blood vessels after administration of S1P. To be noted: 0.3 mg/kg via the tail vein once daily for three days, 24 hours after final administration. As to the method:
S1P, a lysophospholipid other than LPA, was examined for the ability to induce vascular network formation in the tumor as with LPA. LLC cells were subcutaneously inoculated into C57BL/6 […] mice aged 8 weeks (females, SLC, Inc.) in the same manner as in Reference Example 1. S1P (Avanti Polar Lipids, Inc.) was dissolved in PBS at 10 mM, and the solution was stored at -30° C. as a stock solution. Before use, the frozen stock solution was thawed and homogenized with an ultrasonic cleaner (SND Co., Ltd.) for 1 minute. The SIP solution was diluted in PBS to an appropriate concentration for administration at a dose of 0.3 mg/kg in […] PBS. LLC-bearing mice on day 9 post-inoculation (animals with a tumor volume of 60 to 80 mm^3) were subjected to the experiment. The mice were divided into two groups: a control group and an S1P group (n=3 per group). After grouping, S1P was administered via the tail vein to the mice of the S1P group at a dose of 0.3 mg/kg in 100 μL PBS once daily for consecutive three days including the day of grouping. For the control group, PBS (100 μL) was administered via the tail vein to the mice instead of S1P. At 24 hours after the final administration, the tumors were harvested from the mice, and specimens of tumor blood vessels were prepared in the same manner as in Reference Example 1. […]

The subject of the next assay is LLC cells. Briefly: Tumor growth inhibition, subcutaneous tumor formed from LLC cells. To be noted: LLC-bearing mice; LPA 3 mg/kg i.p. once daily for seven days; 5-FU 100 mg/kg i.p. once weekly, 2 times. As to the method:
LLC cells (1×10^6 cells in 100 μL PBS per animal) were subcutaneously injected into C57BL/6 NCrSlc mice aged 8 weeks (females) in the same manner as in Reference Example 1. An LPA solution for administration was prepared in the same manner as in Reference Example 1. 5-FU (Kyowa Hakko Kirin Co., Ltd.) was used as an anticancer drug. 5-FU was prepared as a solution in physiological saline (Otsuka Pharmaceutical Co., Ltd.). On day 7 post-inoculation, LLC-bearing mice that had developed a tumor with a volume of 30 to 50 mm^3 were selected and subjected to the experiment. The mice were assigned to three groups: a control group, a 5-FU group and an LPA group (n=3 per group). After grouping, LPA (3 mg/kg/100 μL), 5-FU (100 mg/kg/100 μL) or PBS (100 μL) was intraperitoneally administered to the mice. The administration of LPA or PBS was performed once daily for consecutive seven days. The administration of 5-FU was performed once weekly, 2 times in total (day 7 and day 14 post-inoculation). Tumor size was measured over time after the start of the administration. Tumor volume was calculated by the following formula: length×width×height×0.5.

Regarding `CCCCCCCC/C=C\CCCCCCCC(=O)N[C@@H](CO)COP(=O)(O)O` [VPC31144S, N-{(1S)-2-hydroxy-1-[(phosphonooxy)methyl]ethyl} (9Z) octade c-9-enamide], the “network structure of tumor blood vessels” value in assay [1] is on record as “a continuous network of blood vessels was formed”.
On to `CCCCCCCCCCCCC/C=C/[C@@H](O)[C@@H](N)COP(=O)(O)O` [S1P, sphingosine-1-phosphate], for which, in assay [2], the “vascular network formation in the tumor” value was “induced vascular network formation in the tumor”.
On to `O=c1[nH]cc(F)c(=O)[nH]1` [5-FU, reference compound], for which, in the assay on LLC cells, the “inhibition of tumor growth (tumor volume) versus control group” value was “remarkable inhibition of tumor growth”.
